Data: ChEMBL document CHEMBL6092150, “Exploration of isatin-based inhibitors of SARS-CoV-2 Nsp15 endoribonuclease” (Eur J Med Chem, 2024)

Columns and labels:
SARS-CoV-2 [1] = assay: Antiviral activity against SARS-CoV-2 Omicron BA.7 variant infected in human A549 cells transfected with human ACE2 and TMPRSS2 assessed as fold reduction in viral RNA load at 80 uM incubated for 3 days by qRT-PCR analysis relative to control; format: functional, Severe acute respiratory syndrome coronavirus 2; conditions: time 3 day
SARS-CoV-2 [2] = assay: Antiviral activity against SARS-CoV-2 Omicron BA.7 variant infected in human A549 cells transfected with human ACE2 and TMPRSS2 assessed as fold reduction in viral RNA load incubated for 3 days by qRT-PCR analysis; format: functional; conditions: Severe acute respiratory syndrome coronavirus 2, Omicron BA.7, A549, 72 h; time 3 day
SARS-CoV-2 [3] = assay: Antiviral activity against SARS-CoV-2 Omicron BA.7 variant infected in human A549 cells transfected with human ACE2 and TMPRSS2 assessed as fold reduction in viral RNA load at 40 uM incubated for 3 days by qRT-PCR analysis relative to control; format: functional, Severe acute respiratory syndrome coronavirus 2; conditions: time 3 day

Compound	fold change (FC) (SARS-CoV-2 [1])	EC90 (SARS-CoV-2 [2])	fold change (FC) (SARS-CoV-2 [3])
N#CC(C#N)=C1C(=O)Nc2ccc([N+](=O)[O-])cc21	425	54 µM	–
N#CC(C#N)=C1C(=O)Nc2c(Br)cc(Br)cc21	68000	39 µM	–
N#C[C@@]1(c2ccc3c(N)ncnn23)O[C@H](CO)[C@@H](O)[C@H]1O [GS-441524]	–	2 µM	72000
